Reference: US20100099642A1, “TGF-BETA STIMULANT AND FURTHER AGENT TO REDUCE SIDE EFFECTS” (TCP Innovations Limited, priority 2007, published 2010)
Marks after values point to notes of the source that are not given here.

How the values were obtained:
tgfb3 mRNA = tgfb3 mRNA level by quantitative PCR in human aortic vascular smooth muscle cells; format: cell-based; settings: 24 hrs, normalised to TBP, vs vehicle
Procedure: (1995) Cardiovasc. Res. 29:848-55). […] The cells were then incubated for either 24 hrs or 72 hrs depending on the experiment. All treatment conditions were established in triplicate. The level of mRNA for tgfb1, tgfb2 and tgfb3 were estimated by quantitative PCR. The media was removed and RNA was carefully prepared using the Ambion RNAqueous4PCR kit (Ambion#1914) in accordance with the manufacturer's instructions. The purity of the RNA and the quantity was assessed spectrophotometrically. […] This analysis results in both a gel-like image as well as electrophoretic data. Indications of RNA degradation are: (a) decreasing ratio of ribosomal bands (b) additional peaks bellow the ribosomal bands (c) Decrease in overall RNA signal (d) shift towards shorter fragments. […] Next, the RNA was converted to cDNA using the ABI High-Capacity cDNA Archive Kit, in accordance with manufacturer's instructions. The qPCR assay was then set up as follow: all cDNA samples were diluted to 180 μl total volume using Molecular grade water. Samples were vortexed to ensure thorough mixing. cDNA was aliquoted into ABI 384 well plates using a multi-channel pipette, 4.5 μl of sample into each well. Samples were assayed in triplicate (that is, nine determinations in total were made for each condition, being three separate assays on each of three replicate culture wells). The assay mix and Universal Master Mix were prepared and aliquoted across the 384 well plates 5.5 μl in each well, using a single channel pipette. The final composition of each reaction (10 μl) being: Primer/Probe assay mix (×20)=0.5 μl; Universal Master Mix=5 μl; cDNA=4.5 μl. The plates were then heat sealed using Abgene clear seal strong plastic heat seals, and then cycled and scanned using the […] under the following conditions: 95° C. for 10 minutes to activate the AmpliTaq GOLD, then 40 cycles of: 95° C. for 15 Sec (Denaturation), 60° C. for 60 […]). […] Quantitative PCR was performed using several primer/probe sets. […] We used both commercially available primer/probe sets (ABI Taqman pre-validated assays), using both available sets in the ABI database for tgfb1 and tgfb2, as well as the single available set for tgfb3. In addition, we used our own manual design probe/primer set for each of tgfb1, tgfb2 and tgfb3. […] In all quantitative PCR experiments, several additional controls were included: firstly, a control for each sample is run with no reverse transcription to ensure the mRNA sample is not contaminated with genomic DNA (although the manual design probe/primer sets were all selected to cross an exon/exon boundary, ensuring no detectable amplicon is produced from genomic DNA templates). Secondly, a control reaction is run using serial 2-fold dilutions of a standard cDNA preparation (prepared from commercially available IMAGE clones). […] Failure of either control led to the repeat of the entire experiment.

apoE-deficient mice = assay: vascular lipid lesion formation at the aortic root (Oil Red O) in apoE-deficient mice; format: in vivo, mouse; settings: 12 weeks in chow, TMX 1 mg/kg/day, Aspirin 30 mg/kg/day, mean ± SD, n = 8
Description: Adult male apoE-deficient mice, back-crossed onto a C57B16 background for at least five generations, were randomised into groups of eight animals at 12 weeks of age, such that each group had similar average body weight. […] Note that the mice receiving both compounds received food pellets into which a homogenous mixture of the ingredients had been compounded, and not a mixture of food pellets each containing one of the two active ingredients. The amount of food eaten and the body weight of each mouse was monitored daily for the first week, and once per week thereafter. After 12 weeks of treatment, the mice were sacrificed by CO2 asphyxiation, and heart & lung blocks were excised, embedded in Cryo-M-bed (Bright Instruments, UK) without fixation and snap frozen in liquid nitrogen.
Sections were then prepared from the aortic root according to the Paigen Strategy (a defined sequence of cutting sections which allow reproducible comparison between animals; see for example Grainger et al. (1995) Nature Med. 1:1067-72 and the references therein). 4 μm crysosections were cut using a motordriven cryotome (Bright Instruments) and collected onto poly-L-lysine coated glass microscope slides, then fixed in ice-cold acetone for 90 secs, allowed to air dry and stored at −20° C. until analysed.
The extent of vascular lipid lesion formation was assessed by Oil Red O staining, with a Fast Green counterstain, a standard histological procedure well known in the art. Briefly, five sections (selected according to the Paigen strategy) from each animal were passed through graded alcohol solutions, then stained in Oil Red O for 12 minutes, washed several times and then counterstained by dipping in Fast Green for 5-10 secs, and then dip washed in several changes of clean water. After air drying, an appropriate mountant was applied (simple glycerol-based moutants are most appropriate for this task), followed by a coverslip using acrylic varnish surrounding the coverslip to hold it in place. Slides were then analysed using a simple inverted microscope (no phase contrast; 10× objective; Olympus AX series), fitted with a digital camera to capture images of the entire aortic wall. The images were subsequently processed, blind to the treatment status of the animal, using Openlab image analysis software (Improvision, UK) running on an Apple Macintosh computer. […]
Mice were sacrificed and heart & lung blocks prepared and processed exactly as described in Example 2. […] The extent of lipid lesion formation was assessed by Oil Red O staining with Fast Green counterstain, exactly as in example 2.

[1] = tested on: anti-collagen type II antibodies; assay: direct ELISA for anti-collagen type II antibodies in serum of collagen-induced arthritis mice; format: in vivo, mouse; settings: day 39, TMX 1 mg/kg/day, aspirin 30 mg/kg/day
Procedure: (1980) Nature 283:666-8). Adult (12 week old) male DBA/1 mice were divided into groups of six animals. […] Foodpad thickness was determined each day using a digital caliper EC1507 (Moore & Wright) accurate to 0.01 mm. The thickness of each footpad was determined three times on each day by a single operator blind to the treatment condition of the mouse, and the footpad thickness of each mouse on each day was reported as the mean for the three measurements for all four paws. Errors represent the standard error of the mean among the six animals in each group. A direct ELISA for anti-collagen type II antibodies was used as an alternative assessment of the autoimmune response.

| Structure (SMILES) | Level of tgfb3 mRNA, estimated by qPCR (tgfb3 mRNA; 10 μM A) [fold-change] | Level of tgfb3 mRNA, estimated by qPCR (tgfb3 mRNA; 33 μM A) [fold-change] | Level of tgfb3 mRNA, estimated by qPCR (tgfb3 mRNA; 100 μM A) [fold-change] | Total intimal area (apoE-deficient mice) | Level of tgfb3 mRNA, estimated by qPCR (tgfb3 mRNA; 3.3 μM T) [fold-change] | Level of tgfb3 mRNA, estimated by qPCR (tgfb3 mRNA; 10 μM T) [fold-change] | Level of tgfb3 mRNA, estimated by qPCR (tgfb3 mRNA; 33 μM T) [fold-change] | Intimal lipid lesion area (apoE-deficient mice) | Lipid lesion area (apoE-deficient mice) | Pan IgG against bovine collagen II, median concentration in serum [1] [µg/mL] | IgG1 against bovine collagen II, median absorbance from the direct ELISA ([1]; neat serum) | IgG2a against bovine collagen II, median absorbance from the direct ELISA ([1]; neat serum) | IgG2b against bovine collagen II, median absorbance from the direct ELISA ([1]; neat serum) | IgG3 against bovine collagen II, median absorbance from the direct ELISA ([1]; neat serum) |
| --- | --- | --- | --- | --- | --- | --- | --- | --- | --- | --- | --- | --- | --- | --- |
| CC(=O)Oc1ccccc1C(=O)O [Aspirin, acetylsalicylic acid] | 1.09 ± 0.08 | 1.06 ± 0.13 | 0.94 ± 0.09 | 65,209 ± 6,712 μm2 | – | – | – | – | – | – | – | – | – | – |
| CC/C(=C(\c1ccccc1)c1ccc(OCCN(C)C)cc1)c1ccccc1 [Tamoxifen] | – | – | – | 64,428 ± 4,294 μm2 | 0.92 ± 0.16 | 1.19 ± 0.21 | 1.31 ± 0.11 | 9,393 ± 2,221 μm2 | 10,794 ± 2,820 μm2 | 181 | <0.05* | 0.081* | 0.482* | 0.069* |
